# Results taken from article PMC5862592, “CDK8/19 inhibition induces premature G1/S transition and ATR-dependent cell death in prostate cancer cells” (Oncotarget, 2018).
# Where two headings read alike, the source gives them in different places.
# Key:
# Assay in all cases: biochemical
# Design in all cases: KINOMEscan active site-directed competition binding assay (DiscoveRx), 456 kinases, per cent of control at 300 nM
# Conditions in all cases: read-out: Percent of Control (%)
# [1] = molecular target: T1, ABL1(H396P)-nonphosphorylated (Homo sapiens, UniProt P00519, H396P)
# T1 construct: nonphosphorylated
# Procedure, shortened: (§1)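 Each compound is tested at 300 nmol/L against a panel of 456 kinases. Interaction is quantified by competition for the kinase active site.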
# [2] = molecular target: SYK (Homo sapiens, UniProt P43405)
# Procedure, shortened: as §1
# [3] = molecular target: T2, NDR2 (Homo sapiens, UniProt Q9Y2H1)
# T2 construct: gene STK38L
# Procedure, shortened: as §1
# [4] = molecular target: MTOR (Homo sapiens, UniProt P42345)
# Procedure, shortened: as §1
# [5] = molecular target: FLT3(ITD) (Homo sapiens, UniProt P36888, ITD)
# Procedure, shortened: as §1
# [6] = molecular target: T3, DRAK1 (Homo sapiens, UniProt Q9UEE5)
# T3 construct: gene STK17A
# Procedure, shortened: as §1
# [7] = molecular target: T4, ERK1 (Homo sapiens, UniProt P27361)
# T4 construct: gene MAPK3
# Procedure, shortened: as §1
# [8] = molecular target: T5, DCAMKL2 (Homo sapiens, UniProt Q8N568)
# T5 construct: gene DCLK2
# Procedure, shortened: as §1
# [9] = molecular target: T6, HPK1 (Homo sapiens, UniProt Q92918)
# T6 construct: gene MAP4K1
# Procedure, shortened: as §1
# [10] = molecular target: MAP4K3 (Homo sapiens, UniProt Q8IVH8)
# Procedure, shortened: as §1
# [11] = molecular target: T7, SgK110 (Homo sapiens, UniProt P0C264)
# T7 construct: gene SBK3
# Procedure, shortened: as §1
# [12] = molecular target: EGFR(S752-I759del) (Homo sapiens, UniProt P00533, DEL752-759)
# Procedure, shortened: as §1
# [13] = molecular target: CLK4 (Homo sapiens, UniProt Q9HAZ1)
# Procedure, shortened: as §1
# [14] = molecular target: T8, DCAMKL1 (Homo sapiens, UniProt O15075)
# T8 construct: gene DCLK1
# Procedure, shortened: as §1
# [15] = molecular target: PIK3CA(Q546K) (Homo sapiens, UniProt P42336, Q546K)
# Procedure, shortened: as §1
# [16] = molecular target: PKN1 (Homo sapiens, UniProt Q16512)
# Procedure, shortened: as §1
# [17] = molecular target: HIPK1 (Homo sapiens, UniProt Q86Z02)
# Procedure, shortened: as §1
# [18] = molecular target: PRKG1 (Homo sapiens, UniProt Q13976)
# Procedure, shortened: as §1
# [19] = molecular target: FES (Homo sapiens, UniProt P07332)
# Procedure, shortened: as §1
# [20] = molecular target: MAP3K15 (Homo sapiens, UniProt Q6ZN16)
# Procedure, shortened: as §1
# [21] = molecular target: T9, NIM1 (Homo sapiens, UniProt Q8IY84)
# T9 construct: gene NIM1K
# Procedure, shortened: as §1
# T4 sequence (P27361 whole entry): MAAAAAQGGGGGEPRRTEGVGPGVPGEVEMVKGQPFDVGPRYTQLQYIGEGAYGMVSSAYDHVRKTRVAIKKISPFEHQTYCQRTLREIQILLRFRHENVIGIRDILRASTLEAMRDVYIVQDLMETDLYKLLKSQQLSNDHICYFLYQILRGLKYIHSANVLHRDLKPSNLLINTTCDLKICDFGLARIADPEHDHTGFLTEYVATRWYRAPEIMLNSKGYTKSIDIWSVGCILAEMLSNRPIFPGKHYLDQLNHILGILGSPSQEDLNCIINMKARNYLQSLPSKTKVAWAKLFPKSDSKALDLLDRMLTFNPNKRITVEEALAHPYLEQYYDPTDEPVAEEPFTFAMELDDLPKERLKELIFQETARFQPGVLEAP
# Sequence of PKN1 (Q16512 whole entry): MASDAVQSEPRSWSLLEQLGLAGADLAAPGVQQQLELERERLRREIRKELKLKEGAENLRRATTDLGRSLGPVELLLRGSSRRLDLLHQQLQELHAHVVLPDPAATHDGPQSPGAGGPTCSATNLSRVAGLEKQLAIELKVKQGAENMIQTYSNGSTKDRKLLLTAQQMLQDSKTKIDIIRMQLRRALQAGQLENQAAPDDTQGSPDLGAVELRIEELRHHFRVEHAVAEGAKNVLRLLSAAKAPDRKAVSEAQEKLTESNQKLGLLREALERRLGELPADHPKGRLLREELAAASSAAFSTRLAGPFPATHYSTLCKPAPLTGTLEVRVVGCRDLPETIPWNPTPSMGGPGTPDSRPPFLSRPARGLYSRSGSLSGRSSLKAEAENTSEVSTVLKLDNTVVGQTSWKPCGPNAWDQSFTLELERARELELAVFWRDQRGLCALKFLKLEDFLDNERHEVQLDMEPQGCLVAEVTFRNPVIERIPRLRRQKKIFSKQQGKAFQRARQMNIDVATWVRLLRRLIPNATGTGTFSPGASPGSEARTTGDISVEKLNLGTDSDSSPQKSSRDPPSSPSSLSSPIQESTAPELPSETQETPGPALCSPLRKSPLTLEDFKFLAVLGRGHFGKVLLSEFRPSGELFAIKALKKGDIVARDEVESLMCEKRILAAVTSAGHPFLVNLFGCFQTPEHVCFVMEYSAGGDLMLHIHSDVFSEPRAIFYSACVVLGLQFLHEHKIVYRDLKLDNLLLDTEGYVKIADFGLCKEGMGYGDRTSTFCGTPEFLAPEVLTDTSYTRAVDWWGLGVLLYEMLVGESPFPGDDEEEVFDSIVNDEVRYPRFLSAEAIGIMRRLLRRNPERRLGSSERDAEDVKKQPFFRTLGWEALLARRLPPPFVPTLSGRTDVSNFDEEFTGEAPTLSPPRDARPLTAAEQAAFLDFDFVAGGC
# Sequence of HIPK1 (Q86Z02 whole entry): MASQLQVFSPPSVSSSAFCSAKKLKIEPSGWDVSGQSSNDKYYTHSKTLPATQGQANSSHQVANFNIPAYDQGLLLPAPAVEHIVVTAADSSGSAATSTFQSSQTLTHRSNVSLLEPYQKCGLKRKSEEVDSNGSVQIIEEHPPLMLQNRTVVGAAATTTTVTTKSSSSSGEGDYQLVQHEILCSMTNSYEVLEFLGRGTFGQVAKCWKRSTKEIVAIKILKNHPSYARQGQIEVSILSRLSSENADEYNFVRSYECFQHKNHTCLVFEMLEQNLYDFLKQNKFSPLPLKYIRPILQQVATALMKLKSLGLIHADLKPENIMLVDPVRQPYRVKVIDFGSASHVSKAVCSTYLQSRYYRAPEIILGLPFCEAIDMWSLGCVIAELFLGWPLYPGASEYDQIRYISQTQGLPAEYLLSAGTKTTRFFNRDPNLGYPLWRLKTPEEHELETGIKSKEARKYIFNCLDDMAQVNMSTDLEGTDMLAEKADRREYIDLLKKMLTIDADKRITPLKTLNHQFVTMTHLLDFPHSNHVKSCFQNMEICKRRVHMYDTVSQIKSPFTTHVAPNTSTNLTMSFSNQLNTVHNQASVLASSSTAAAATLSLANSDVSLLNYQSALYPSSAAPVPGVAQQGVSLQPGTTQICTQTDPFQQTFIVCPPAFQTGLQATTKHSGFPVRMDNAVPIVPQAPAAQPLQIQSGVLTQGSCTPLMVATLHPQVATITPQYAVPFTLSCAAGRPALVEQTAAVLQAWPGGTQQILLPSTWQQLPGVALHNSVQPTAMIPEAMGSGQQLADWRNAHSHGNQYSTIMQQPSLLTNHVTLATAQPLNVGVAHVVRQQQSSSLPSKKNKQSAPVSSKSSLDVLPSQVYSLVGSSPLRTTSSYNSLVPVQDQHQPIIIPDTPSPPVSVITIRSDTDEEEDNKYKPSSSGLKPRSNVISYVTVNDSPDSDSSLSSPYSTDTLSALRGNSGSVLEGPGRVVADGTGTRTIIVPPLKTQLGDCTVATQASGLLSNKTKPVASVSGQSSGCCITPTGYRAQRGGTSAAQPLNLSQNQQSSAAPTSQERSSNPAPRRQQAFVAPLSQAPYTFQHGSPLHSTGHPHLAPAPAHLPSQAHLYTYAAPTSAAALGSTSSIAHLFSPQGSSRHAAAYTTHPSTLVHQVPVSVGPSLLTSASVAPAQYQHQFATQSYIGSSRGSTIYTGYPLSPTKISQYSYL
# T9 sequence (Q8IY84 whole entry): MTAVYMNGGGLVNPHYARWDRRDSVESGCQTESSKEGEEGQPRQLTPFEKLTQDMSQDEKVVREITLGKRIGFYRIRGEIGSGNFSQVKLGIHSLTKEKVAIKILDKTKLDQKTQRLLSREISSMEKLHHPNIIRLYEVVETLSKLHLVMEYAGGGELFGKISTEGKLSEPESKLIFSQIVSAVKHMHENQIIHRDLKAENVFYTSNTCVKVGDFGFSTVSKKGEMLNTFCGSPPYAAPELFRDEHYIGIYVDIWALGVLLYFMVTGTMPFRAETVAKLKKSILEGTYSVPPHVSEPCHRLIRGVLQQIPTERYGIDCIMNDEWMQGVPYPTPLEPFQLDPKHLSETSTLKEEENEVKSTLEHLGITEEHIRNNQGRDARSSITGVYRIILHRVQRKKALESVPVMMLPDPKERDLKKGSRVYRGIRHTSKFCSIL
# Sequence of PIK3CA(Q546K) (P42336 whole entry Q546K): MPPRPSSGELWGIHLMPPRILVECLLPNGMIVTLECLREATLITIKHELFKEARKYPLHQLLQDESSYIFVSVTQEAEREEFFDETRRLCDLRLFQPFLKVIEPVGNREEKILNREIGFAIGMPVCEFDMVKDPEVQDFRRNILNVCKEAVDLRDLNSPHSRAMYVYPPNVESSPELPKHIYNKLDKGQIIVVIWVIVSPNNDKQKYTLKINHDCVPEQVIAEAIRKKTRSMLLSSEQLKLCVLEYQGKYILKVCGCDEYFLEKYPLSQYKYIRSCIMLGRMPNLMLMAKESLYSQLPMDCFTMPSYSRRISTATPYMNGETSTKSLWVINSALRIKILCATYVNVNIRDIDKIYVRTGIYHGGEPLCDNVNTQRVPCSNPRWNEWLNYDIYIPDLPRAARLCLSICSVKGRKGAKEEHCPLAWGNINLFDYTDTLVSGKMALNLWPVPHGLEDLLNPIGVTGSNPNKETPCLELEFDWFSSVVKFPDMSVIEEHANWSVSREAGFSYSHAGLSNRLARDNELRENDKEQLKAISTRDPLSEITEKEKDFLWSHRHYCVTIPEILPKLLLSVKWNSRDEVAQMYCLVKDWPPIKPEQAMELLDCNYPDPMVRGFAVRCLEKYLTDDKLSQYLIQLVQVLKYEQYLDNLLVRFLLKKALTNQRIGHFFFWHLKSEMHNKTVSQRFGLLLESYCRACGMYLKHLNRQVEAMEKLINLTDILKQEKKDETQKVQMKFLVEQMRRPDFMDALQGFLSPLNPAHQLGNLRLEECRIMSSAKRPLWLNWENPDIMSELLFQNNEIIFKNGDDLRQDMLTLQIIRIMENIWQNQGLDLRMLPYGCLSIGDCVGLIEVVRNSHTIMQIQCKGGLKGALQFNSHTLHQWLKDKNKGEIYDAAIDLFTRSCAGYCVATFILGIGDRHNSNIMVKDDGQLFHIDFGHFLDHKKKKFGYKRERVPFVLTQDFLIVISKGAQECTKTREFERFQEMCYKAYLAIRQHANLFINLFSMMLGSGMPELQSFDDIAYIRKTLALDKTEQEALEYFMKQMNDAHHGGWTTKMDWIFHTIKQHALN
# Sequence of CLK4 (Q9HAZ1 whole entry): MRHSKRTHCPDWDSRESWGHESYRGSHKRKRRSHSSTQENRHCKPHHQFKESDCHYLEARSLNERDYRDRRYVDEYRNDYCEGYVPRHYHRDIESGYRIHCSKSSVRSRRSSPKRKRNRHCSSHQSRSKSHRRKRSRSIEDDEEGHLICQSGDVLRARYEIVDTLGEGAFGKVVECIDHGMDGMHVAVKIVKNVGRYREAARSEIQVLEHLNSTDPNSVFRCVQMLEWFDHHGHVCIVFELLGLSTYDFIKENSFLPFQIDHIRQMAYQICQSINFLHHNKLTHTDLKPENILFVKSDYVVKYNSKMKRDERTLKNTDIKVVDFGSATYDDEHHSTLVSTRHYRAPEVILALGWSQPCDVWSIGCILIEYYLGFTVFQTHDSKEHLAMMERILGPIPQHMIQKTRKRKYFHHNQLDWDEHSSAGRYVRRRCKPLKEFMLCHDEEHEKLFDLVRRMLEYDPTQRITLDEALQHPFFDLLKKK
# T3 sequence (Q9UEE5 whole entry): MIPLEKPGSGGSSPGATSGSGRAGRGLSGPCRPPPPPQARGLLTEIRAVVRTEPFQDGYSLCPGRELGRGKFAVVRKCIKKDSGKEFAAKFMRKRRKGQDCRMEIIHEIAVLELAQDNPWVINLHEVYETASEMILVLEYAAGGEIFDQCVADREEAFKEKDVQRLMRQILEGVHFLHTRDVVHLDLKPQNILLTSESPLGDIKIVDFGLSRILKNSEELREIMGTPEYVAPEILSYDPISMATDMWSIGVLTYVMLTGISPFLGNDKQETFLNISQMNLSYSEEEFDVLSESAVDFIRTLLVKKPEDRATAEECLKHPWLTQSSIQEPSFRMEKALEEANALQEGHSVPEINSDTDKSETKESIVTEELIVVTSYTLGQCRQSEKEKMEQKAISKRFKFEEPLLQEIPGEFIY
smiles,measurement,setting,value
"O=C(/C=C/c1cnccc1-c1ccc(F)cc1)Nc1ccc(CCc2nnco2)cc1 [T-418, (2E)-3-(4-(4-fluorophenyl)pyridin-3-yl)-N-(4-(2-(1,3,4-oxadiazol-2-yl)ethyl)phenyl)acrylamide]",remaining binding at 0.3 µM,[1]; sheet T-418,97%
same,remaining binding at 0.3 µM,[2]; sheet T-418,100%
same,remaining binding at 0.3 µM,[3]; sheet T-418,100%
same,remaining binding at 0.3 µM,[4]; sheet T-418,100%
same,remaining binding at 0.3 µM,[5]; sheet T-418,100%
same,remaining binding at 0.3 µM,[6]; sheet T-418,100%
same,remaining binding at 0.3 µM,[7]; sheet T-418,94%
same,remaining binding at 0.3 µM,[8]; sheet T-418,100%
same,remaining binding at 0.3 µM,[9]; sheet T-418,95%
same,remaining binding at 0.3 µM,[10]; sheet T-418,82%
same,remaining binding at 0.3 µM,[11]; sheet T-418,73%
same,remaining binding at 0.3 µM,[12]; sheet T-418,98%
same,remaining binding at 0.3 µM,[13]; sheet T-418,100%
same,remaining binding at 0.3 µM,[14]; sheet T-418,52%
same,remaining binding at 0.3 µM,[15]; sheet T-418,100%
same,remaining binding at 0.3 µM,[16]; sheet T-418,48%
same,remaining binding at 0.3 µM,[17]; sheet T-418,75%
same,remaining binding at 0.3 µM,[18]; sheet T-418,87%
same,remaining binding at 0.3 µM,[19]; sheet T-418,83%
same,remaining binding at 0.3 µM,[20]; sheet T-418,100%
same,remaining binding at 0.3 µM,[21]; sheet T-418,100%
"Cc1ncccc1Oc1sc(C(N)=O)c2c1-c1c(cnn1C)CC2 [T-474, 1-methyl-8-((2-methylpyridin-3-yl)oxy)-4,5-dihydro-1H-thieno[3,4-g]indazole-6-carboxamide]",remaining binding at 0.3 µM,[1],100%
same,remaining binding at 0.3 µM,[2],100%
same,remaining binding at 0.3 µM,[3],100%
same,remaining binding at 0.3 µM,[4],82%
same,remaining binding at 0.3 µM,[5],100%
same,remaining binding at 0.3 µM,[6],100%
same,remaining binding at 0.3 µM,[7],100%
same,remaining binding at 0.3 µM,[8],100%
same,remaining binding at 0.3 µM,[9],78%
same,remaining binding at 0.3 µM,[10],100%
same,remaining binding at 0.3 µM,[11],57%
same,remaining binding at 0.3 µM,[12],100%
same,remaining binding at 0.3 µM,[13],50%
same,remaining binding at 0.3 µM,[14],69%
same,remaining binding at 0.3 µM,[15],100%
same,remaining binding at 0.3 µM,[16],54%
same,remaining binding at 0.3 µM,[17],81%
same,remaining binding at 0.3 µM,[18],100%
same,remaining binding at 0.3 µM,[19],100%
same,remaining binding at 0.3 µM,[20],100%
same,remaining binding at 0.3 µM,[21],63%
